{
  "source": "patent US9326988B2",
  "about": "“Treatment and/or prevention of parkinson's disease dementia with ceftriaxone” (CHUNG SHAN MEDICAL UNIVERSITY, priority 2012, dated 2016)",
  "key": {"[1]": {"system": "rats with PDD", "experiment": "Nissl staining of pyramidal neurons in the hippocampal CA1 area of PDD rats", "assay_type": "in vivo, male Wistar rats", "conditions": "Example 1 treatment group 1: 200 mg/kg daily i.p. for 14 days after MPTP-HCl; determined 15th day (FIG. 6)", "from_the_text": "In order to investigate whether ceftriaxone is effective in ameliorating neuroinflammation and neurodegeneration of the rats with PDD, on the 15th day after the MPTP-HCl injection, four rats were randomly selected from each of the treatment group 1, the sham-operated group 1, and the pathological control group for histopathological analysis.\nThe randomly selected rats were sacrificed using CO2, followed by perfusion with 4% paraformaldehyde (in phosphate buffered saline). The brains were rapidly removed and were post-fixed in a 30% sucrose solution containing 4% paraformaldehyde at 4° C. for at least three days. The brains were cut into coronal sections (a thickness of about 30 μm) using a cryostat (Leica CM3050 S, Leica).\nIn addition, the sections containing the hippocampal CA1 area were selected and were subjected to Nissl staining according to the method well known to and commonly used by one skilled in the art. […] Image Pro Plus Software 6.0 was utilized to estimate the percentage of an area occupied by pyramidal neurons in an area of 2,354 μm^2 according to the semi-quantitative method as described in Xavier L. L. et al. (2005), Brain Research protocols, 16:58-64.\nThe experimental data are expressed as mean±SEM. […]"}, "[2]": {"system": "normal rats", "experiment": "T-maze test (working memory) in sham-operated rats", "assay_type": "in vivo, male Wistar rats", "conditions": "determined 10th day (FIG. 3)", "experimental": "The rats in the sham-operated groups were generally subjected to the same surgical procedures for the rats in the pathological control group, the preventive groups, and the treatment groups, except that an equal volume of saline was infused bilaterally into the SNc of the mesencephalon of rats in the shame-operated groups.\n5 days before the MPTP-HCl injection, ceftriaxone (Sigma) was administered to the rats in the preventive groups 1,2 via intraperitoneal injection respectively at a daily dose of 100 mg/kg and at a daily dose of 200 mg/kg until the end of the 14th day after the MPTP-HCl injection. After the MPTP-HCl injection, ceftriaxone was administered to the rats in the treatment group 1 and the sham-operated groups 2,3 via intraperitoneal injection respectively at a daily dose of 200 mg/kg, at a daily dose of 100 mg/kg, and at a daily dose of 200 mg/kg, and saline was administered to the rats in the pathological control group and the sham-operated group 1 via intraperitoneal injection at a daily dose of 1 mL/kg. In addition, starting on the 3rd day after the MPTP-HCl injection, ceftriaxone was administered to the rats in the treatment groups 2,3 via intraperitoneal injection respectively at a daily dose of 100 mg/kg and at a daily dose of 200 mg/kg. […]"}},
  "data": [
    {"molecule": "CO/N=C(\\C(=O)N[C@@H]1C(=O)N2C(C(=O)O)=C(CSc3nc(=O)c(=O)[nH]n3C)CS[C@H]12)c1csc(N)n1", "note": "[ceftriaxone, Ceftriaxone]", "values": [
      {"measurement": "percentage of an area occupied by pyramidal neurons in the hippocampal CA1 area compared to the pathological control group", "setting": "[1]", "result": "significantly higher"},
      {"measurement": "correct response rate compared to sham-operated group 1 (saline)", "setting": "[2]; sham-operated group 2: 100 mg/kg daily i.p. to 14th day", "result": "no statistical significance"},
      {"measurement": "correct response rate compared to sham-operated group 1 (saline)", "setting": "[2]; sham-operated group 3: 200 mg/kg daily i.p. to 14th day", "result": "no statistical significance"}
    ]}
  ]
}
